Experimental data as given in patent US20230365592A1 (Agios Pharmaceuticals, Inc., priority 2022, published 2023).

The compounds below were run against T1, human PAH with the R408W mutation (Homo sapiens, UniProt P00439, R408W) (assay: Cell Based Phenylalanine Flux Assay). Conditions: A375 cells expressing human PAH R408W; 24 hrs compound incubation; 13C-Tyrosine by LC-MS; average where tested multiple times; read-out: AC50.
T1 construct: expressed in transfected cells
T1 sequence (P00439 1-452 R408W): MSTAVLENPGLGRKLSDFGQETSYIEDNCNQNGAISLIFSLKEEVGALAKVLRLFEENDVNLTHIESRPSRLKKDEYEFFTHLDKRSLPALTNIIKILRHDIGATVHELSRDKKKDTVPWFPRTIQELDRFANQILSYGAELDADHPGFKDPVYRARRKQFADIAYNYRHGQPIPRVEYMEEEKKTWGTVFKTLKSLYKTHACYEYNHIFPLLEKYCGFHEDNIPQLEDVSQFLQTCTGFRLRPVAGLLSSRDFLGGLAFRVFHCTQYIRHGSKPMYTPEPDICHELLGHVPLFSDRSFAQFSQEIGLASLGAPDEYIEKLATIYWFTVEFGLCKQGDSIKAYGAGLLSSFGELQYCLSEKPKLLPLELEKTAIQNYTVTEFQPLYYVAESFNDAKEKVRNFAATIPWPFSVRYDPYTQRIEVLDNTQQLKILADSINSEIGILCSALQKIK
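Note: after compound treatment, cells received sepiapterin plus isotope-labelled Phenylalanine for 4 hours, then labelled Tyrosine in the medium was quantified, 10-point 2-fold dilution series run in duplicate.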

Structure (SMILES) | AC50
Cc1cc(-c2nnc(C(=O)N3CCc4[nH]cnc4[C@H]3c3cc4c(C)cccn4n3)o2)n[nH]1 [Example 2291, (S)-(5-(5-methyl-1H-pyrazol-3-yl)-1,3,4-oxadiazol-2-yl)(4-(4-methylpyrazolo[1,5-a]pyridin-2-yl)-1,4,6,7-tetrahydro-5H-imidazo[4,5-c]pyridin-5-yl)methanone] | 1000 to 5000 nM
Cc1c[nH]nc1-c1nnc(C(=O)N2CCc3[nH]cnc3[C@H]2c2cc3c(C)cccn3n2)o1 [Example 2292, (S)-(5-(4-methyl-1H-pyrazol-3-yl)-1,3,4-oxadiazol-2-yl)(4-(4-methylpyrazolo[1,5-a]pyridin-2-yl)-1,4,6,7-tetrahydro-5H-imidazo[4,5-c]pyridin-5-yl)methanone] | < 500 nM
Cc1c[nH]nc1-c1nnc(C(=O)N2CCc3[nH]cnc3[C@@H]2c2cc3c(C)cccn3n2)o1 [Example 2293, (R)-(5-(4-methyl-1H-pyrazol-3-yl)-1,3,4-oxadiazol-2-yl)(4-(4-methylpyrazolo[1,5-a]pyridin-2-yl)-1,4,6,7-tetrahydro-5H-imidazo[4,5-c]pyridin-5-yl)methanone] | > 5000 nM
Cc1cc(-c2nnc(C(=O)N3CCc4[nH]cnc4[C@@H]3c3cc4c(F)cccn4n3)o2)n[nH]1 [Example 2294, (R)-(4-(4-fluoropyrazolo[1,5-a]pyridin-2-yl)-1,4,6,7-tetrahydro-5H-imidazo[4,5-c]pyridin-5-yl)(5-(5-methyl-1H-pyrazol-3-yl)-1,3,4-oxadiazol-2-yl)methanone] | > 5000 nM
COc1cccn2nc([C@H]3c4nc[nH]c4CCN3c3ncccn3)cc12 [Example 2298, (R)-4-(4-methoxypyrazolo[1,5-a]pyridin-2-yl)-5-(pyrimidin-2-yl)-4,5,6,7-tetrahydro-1H-imidazo[4,5-c]pyridine] | 1000 to 5000 nM
COc1cccn2nc([C@@H]3c4nc[nH]c4CCN3c3ncccn3)cc12 [Example 2299, (S)-4-(4-methoxypyrazolo[1,5-a]pyridin-2-yl)-5-(pyrimidin-2-yl)-4,5,6,7-tetrahydro-1H-imidazo[4,5-c]pyridine] | < 500 nM
CC(C)c1nnc(N2CCc3[nH]cnc3[C@H]2c2cc3ccccn3n2)o1 [Example 2301, (S)-2-isopropyl-5-(4-(pyrazolo[1,5-a]pyridin-2-yl)-1,4,6,7-tetrahydro-5H-imidazo[4,5-c]pyridin-5-yl)-1,3,4-oxadiazole] | 500 to 1000 nM
Cc1cccn2nc([C@@H]3c4nc[nH]c4CCN3c3nnc(C(C)C)o3)cc12 [Example 2303, (S)-2-isopropyl-5-(4-(4-methylpyrazolo[1,5-a]pyridin-2-yl)-1,4,6,7-tetrahydro-5H-imidazo[4,5-c]pyridin-5-yl)-1,3,4-oxadiazole] | < 500 nM
CC(C)c1nnc(N2CCc3[nH]cnc3[C@H]2c2cc3c(C(F)(F)F)cccn3n2)o1 [Example 2305, (S)-2-isopropyl-5-(4-(4-(trifluoromethyl)pyrazolo[1,5-a]pyridin-2-yl)-1,4,6,7-tetrahydro-5H-imidazo[4,5-c]pyridin-5-yl)-1,3,4-oxadiazole] | 500 to 1000 nM
Cc1cccnc1-c1nnc(N2CCc3[nH]cnc3[C@@H]2c2cc3cccc(C)n3n2)o1 [Example 2308, (R)-2-(4-(7-methylpyrazolo[1,5-a]pyridin-2-yl)-1,4,6,7-tetrahydro-5H-imidazo[4,5-c]pyridin-5-yl)-5-(3-methylpyridin-2-yl)-1,3,4-oxadiazole] | > 5000 nM
Cc1cccnc1-c1nnc(N2CCc3[nH]cnc3[C@H]2c2cc3cccc(C)n3n2)o1 [Example 2309, (S)-2-(4-(7-methylpyrazolo[1,5-a]pyridin-2-yl)-1,4,6,7-tetrahydro-5H-imidazo[4,5-c]pyridin-5-yl)-5-(3-methylpyridin-2-yl)-1,3,4-oxadiazole] | 500 to 1000 nM
Cc1cccn2nc([C@@H]3c4nc[nH]c4CCN3c3ccccc3)cc12 [Example 2311, (S)-4-(4-methylpyrazolo[1,5-a]pyridin-2-yl)-5-phenyl-4,5,6,7-tetrahydro-1H-imidazo[4,5-c]pyridine] | < 500 nM
Fc1cccn2nc([C@H]3c4nc[nH]c4CCN3c3ccccc3)cc12 [Example 2312, (R)-4-(4-fluoropyrazolo[1,5-a]pyridin-2-yl)-5-phenyl-4,5,6,7-tetrahydro-1H-imidazo[4,5-c]pyridine] | 1000 to 5000 nM
Fc1cccn2nc([C@@H]3c4nc[nH]c4CCN3c3ccccc3)cc12 [Example 2313, (S)-4-(4-fluoropyrazolo[1,5-a]pyridin-2-yl)-5-phenyl-4,5,6,7-tetrahydro-1H-imidazo[4,5-c]pyridine] | < 500 nM
FC(F)(F)Oc1cccn2nc([C@@H]3c4nc[nH]c4CCN3c3nnc(C4CC4)o3)cc12 [Example 2314, (S)-2-cyclopropyl-5-(4-(4-(trifluoromethoxy)pyrazolo[1,5-a]pyridin-2-yl)-1,4,6,7-tetrahydro-5H-imidazo[4,5-c]pyridin-5-yl)-1,3,4-oxadiazole] | < 500 nM
FC(F)(F)Oc1cccn2nc([C@@H]3c4nc[nH]c4CCN3c3ncc(C(F)(F)F)cn3)cc12 [Example 2316, (S)-4-(4-(trifluoromethoxy)pyrazolo[1,5-a]pyridin-2-yl)-5-(5-(trifluoromethyl)pyrimidin-2-yl)-4,5,6,7-tetrahydro-1H-imidazo[4,5-c]pyridine] | < 500 nM
FC(F)Oc1cccn2nc([C@H]3c4nc[nH]c4CCN3c3cnccn3)cc12 [Example 2318, (R)-4-(4-(difluoromethoxy)pyrazolo[1,5-a]pyridin-2-yl)-5-(pyrazin-2-yl)-4,5,6,7-tetrahydro-1H-imidazo[4,5-c]pyridine] | > 5000 nM
CC(C)c1nnc(N2CCc3[nH]cnc3[C@@H]2c2cc3c(F)cccn3n2)o1 [Example 2322, (R)-2-(4-(4-fluoropyrazolo[1,5-a]pyridin-2-yl)-1,4,6,7-tetrahydro-5H-imidazo[4,5-c]pyridin-5-yl)-5-isopropyl-1,3,4-oxadiazole] | > 5000 nM
CC(C)c1nnc(N2CCc3[nH]cnc3[C@@H]2c2cc3c(Cl)cccn3n2)o1 [Example 2324, (R)-2-(4-(4-chloropyrazolo[1,5-a]pyridin-2-yl)-1,4,6,7-tetrahydro-5H-imidazo[4,5-c]pyridin-5-yl)-5-isopropyl-1,3,4-oxadiazole] | > 5000 nM
CC(C)c1nnc(N2CCc3[nH]cnc3[C@H]2c2cc3c(Cl)cccn3n2)o1 [Example 2325, (S)-2-(4-(4-chloropyrazolo[1,5-a]pyridin-2-yl)-1,4,6,7-tetrahydro-5H-imidazo[4,5-c]pyridin-5-yl)-5-isopropyl-1,3,4-oxadiazole] | < 500 nM
CC(F)(F)c1nnc(N2CCc3[nH]cnc3[C@H]2c2cc3cccc(Cl)n3n2)o1 [Example 2327, (S)-2-(4-(7-chloropyrazolo[1,5-a]pyridin-2-yl)-1,4,6,7-tetrahydro-5H-imidazo[4,5-c]pyridin-5-yl)-5-(1,1-difluoroethyl)-1,3,4-oxadiazole] | 1000 to 5000 nM
Cc1cccc2cc([C@@H]3c4nc[nH]c4CCN3c3nnc(C(C)(F)F)o3)nn12 [Example 2329, (S)-2-(1,1-difluoroethyl)-5-(4-(7-methylpyrazolo[1,5-a]pyridin-2-yl)-1,4,6,7-tetrahydro-5H-imidazo[4,5-c]pyridin-5-yl)-1,3,4-oxadiazole] | 1000 to 5000 nM
Cc1ncccc1-c1nnc(N2CCc3[nH]cnc3[C@@H]2c2cc3cccc(Cl)n3n2)o1 [Example 2331, (R)-2-(4-(7-chloropyrazolo[1,5-a]pyridin-2-yl)-1,4,6,7-tetrahydro-5H-imidazo[4,5-c]pyridin-5-yl)-5-(2-methylpyridin-3-yl)-1,3,4-oxadiazole] | > 5000 nM
Cc1ncccc1-c1nnc(N2CCc3[nH]cnc3[C@H]2c2cc3cccc(C)n3n2)o1 [Example 2332, (S)-2-(4-(7-methylpyrazolo[1,5-a]pyridin-2-yl)-1,4,6,7-tetrahydro-5H-imidazo[4,5-c]pyridin-5-yl)-5-(2-methylpyridin-3-yl)-1,3,4-oxadiazole] | 500 to 1000 nM
Cc1ncccc1-c1nnc(N2CCc3[nH]cnc3[C@@H]2c2cc3cccc(C)n3n2)o1 [Example 2333, (R)-2-(4-(7-methylpyrazolo[1,5-a]pyridin-2-yl)-1,4,6,7-tetrahydro-5H-imidazo[4,5-c]pyridin-5-yl)-5-(2-methylpyridin-3-yl)-1,3,4-oxadiazole] | > 5000 nM
CC(C)c1cccn2nc([C@@H]3c4nc[nH]c4CCN3c3nnc(-c4cccnc4F)o3)cc12 [Example 2335, (S)-2-(2-fluoropyridin-3-yl)-5-(4-(4-isopropylpyrazolo[1,5-a]pyridin-2-yl)-1,4,6,7-tetrahydro-5H-imidazo[4,5-c]pyridin-5-yl)-1,3,4-oxadiazole] | 500 to 1000 nM
Cc1cccnc1-c1nnc(N2CCc3[nH]cnc3[C@H]2c2cc3cccc(C(F)(F)F)n3n2)o1 [Example 2336, (S)-2-(3-methylpyridin-2-yl)-5-(4-(7-(trifluoromethyl)pyrazolo[1,5-a]pyridin-2-yl)-1,4,6,7-tetrahydro-5H-imidazo[4,5-c]pyridin-5-yl)-1,3,4-oxadiazole] | 500 to 1000 nM
Fc1cccnc1-c1nnc(N2CCc3[nH]cnc3[C@H]2c2cc3ccccn3n2)o1 [Example 2338, (S)-2-(3-fluoropyridin-2-yl)-5-(4-(pyrazolo[1,5-a]pyridin-2-yl)-1,4,6,7-tetrahydro-5H-imidazo[4,5-c]pyridin-5-yl)-1,3,4-oxadiazole] | 500 to 1000 nM
Fc1cccnc1-c1nnc(N2CCc3[nH]cnc3[C@@H]2c2cc3ccccn3n2)o1 [Example 2339, (R)-2-(3-fluoropyridin-2-yl)-5-(4-(pyrazolo[1,5-a]pyridin-2-yl)-1,4,6,7-tetrahydro-5H-imidazo[4,5-c]pyridin-5-yl)-1,3,4-oxadiazole] | > 5000 nM
